Laboratory results taken from patent US10874685B2, “Pancreatic cancer therapy and diagnosis” (Deutsches Krebsforschungszentrum Stiftung des Öffentlichen …, priority 2014, dated 2020).
“Also recorded” adds a separate entry of the source.

Legend:
[1] = system: pancreatic cancer cell lines (PANC-1, CFPAC-1, CAPAN-1, MIAPaCa-2, BXPC-3); experiment: Sulforhodamine B (SRB) cytotoxicity assay on pancreatic cancer cell lines; assay type: cell-based, human; details: increasing concentration, 72 h
Description: PANC-1, CFPAC-1, CAPAN-1, MIAPaCa-2, BXPC-3 and fibroblast cells were seeded for 24 h and were exposed to increasing concentration of Pimozide and vehicle for 72 h (FIG. 3A). The same procedure was followed for treatment of cancer cell lines with L741 (FIG. 3B). Cell viability was characterized using a SRB assay. Values are the mean+/−SD of six independent experiments.
Five pancreatic ductal cancer cell lines with various degree of differentiation were obtained from American Type Culture Collection (Rockville, USA) and Normal Human Dermal Fibroblasts (NHDF) obtained from PromoCell. BXPC-3 (moderately differentiated) as well as poorly differentiated human pancreatic cancer cell lines, PANC-1 and MIAPaCa-2, have been established from primary tumor. AsPC-1, CAPAN-1 and CFPAC-1 which represent well differentiated cell lines was isolated from ascites and liver metastasis of pancreas adenocarcinoma. All cell lines contain mutation in P53 whereas K-ras mutation reported in all with the exception of BxPc3. BRCA2 mutation just reported in CAPAN-1 cells.
Sulforhodamine B sodium salt (sigma) was used to assess cell viability and IC50 determination of pancreatic cancer cells. […] Cell viability was specified by using plate reader (TECAN) with measuring of absorbance at 570 and 650 nm (background) in treated or untreated 96 well plate.

[2] = system: PANC-1 cells; experiment: Wound healing (scratching) assay for cell migration; assay type: cell-based, human; details: PANC-1, increasing concentrations, 10 h
Description: PANC-1 cells were plated in the chamber were already attached in 12 well plate and allowed to grow for 24 h. Then, a wound was made in the confluent monolayer by removing the chamber. Cells were exposed to increasing concentration of Pimozide (FIG. 6A) or L741 (FIG. 6B) and vehicle for 10 h. Wound gap closure was measured for each drug concentration by comparing the gap at time 0 h to the one at the time 10 h when the gap closed in negative control and normalized to untreated condition.
PANC-1 cells were seeded into the 35 mm-dish culture-silicon Insert frames from Ibidi where already attached to the 6 well culture plate. When 96-98% confluency was achieved, the insert frames were removed using sterile forceps to reach cell free gap. To create a reference point for subsequent measurements, three different part of the gap was marked on the underside of the plastic. Floating cells and cell debris were washed using PBS, relative culture medium was added to each wells and migration distance was photographed using a Zeiss Axiovert 24 light microscope at zero time in the marked areas. Afterward, the wells were treated by addition of DMSO as control and different increasing concentration of Pim and L741. Plates were then placed into the incubator and the cells were allowed to migrate until the time when the gap for the […] closed (t time). Images were taken from the marked areas again. This assay was performed employing various concentrations of drugs at which maximum 5% viability inhibition was observed after 10 h treatment.

[3] = system: KPC-023, KPC-01 and KPC-LM pancreatic cancer cell lines; experiment: Viability of primary and metastatic pancreatic cancer cell lines isolated from KPC mice; assay type: cell-based; details: primary (KPC-023, KPC-01) and metastatic (KPC-LM) lines
[4] = system: pituitary tumor cells; details: after treatment; cited from earlier work
[5] = system: MIAPaCa-2 xenograft; experiment: Combination therapy in NSG mice, MIAPaCa-2 xenograft model; assay type: in vivo; details: i.p. 16 days; pimozide 10 mg/kg daily; gemcitabine 20 mg/kg every 4 days
Description: Tumor volumes normalized to initial measurement shown in the y-axis every four days following treatment with either vehicle (gray line), the chemotherapeutic gemcitabine (green line), a combination therapy of 2-deoxy-D-glucose, atorvastatin and pimozide (2DG+ATR+Pim, redline), or a combination therapy of 2DG+ATR+Pim and gemcitabine (2DG+ATR+Pim+Gem, red dashed line) (FIG. 12A). […] Tumor weight (FIG. 12C) and volume of samples (FIG. 12D) harvested following treatment with, from left to right, control (Vehicle), 2DG+ATR, Pim alone, Pim+2DG+ATR, Gem alone, 2DG+ATR+Gem, Pim+Gem, or Pim+2DG+ATR+Gem.
NOD severe combined immunodeficiency gamma (NSG) mice were subcutaneously injected in the right flank with five million MIAPaCa-2 cells. Once tumors were detectable (200 mm^3), mice were randomized into 8 groups (5 in each group) and treated through intraperitoneal injection as indicated for 16 days. All drugs were given every day whereas gemcitabine was given every 4 days, alone or in combination. Experiment was terminated when control animals became moribund. The growth of tumors was measured every 4 days. Tumors were harvested and photographed. Tumor weights and volumes were measured.
The efficacy of the combined treatment approach was investigated using a MIAPaCa-2 xenograft model of pancreatic cancer.

[6] = system: locally advanced, unresectable, or metastatic pancreatic adenocarcinoma; details: patients with locally advanced; cited from earlier work
[7] = system: MIAPaCa-2 cells; experiment: Orthotopic pancreatic tumor mouse model treated with DRD2 antagonists; assay type: in vivo, mice; details: compared to vehicle
Description: Two million MIAPaCa-2 cells were resuspended in 10 μL Matrigel (BD Biosciences, San Jose, Calif.) were orthotopically implanted into the tail of the pancreas of 6-week-old Nod scid gamma animals (Jackson Labs, Bar Harbor, Me.) (day 1). When tumors were palpable (day 27), mice were randomized into 2 groups (n=7 in control group and n=9 in haloperidol group) and injected intraperitoneally with either haloperidol (10 mg/kg) or solvent (dimethylsulfoxide [DMSO] control group) for 12 days. The experiment was terminated when control mice appeared moribund. Weight of the animal and final tumor weight and volume were measured.

[8] = system: MIAPaCa-2, PANC-1 and AsPC-1 cells; experiment: Glucose uptake measurement (labelled 2-DG) in PDAC cell lines; assay type: cell-based, human; details: all three cell lines; relative to DMSO control
Description: (§1) Measurement of 2-deoxy-D-glucose uptake shown on the y-axis relative to control by PDAC cell lines (MIAPaCa2, left; PANC-1, middle; AsPC1, right) treated with DMSO (C), pimozide (P) or haloperidol (H) (FIG. 10A). Abundance of free cholesterol, as measured by staining with filipin, after treatment with haloperidol (H) or pimozide (P) in PDAC cell lines (MIAPaCa2, left; PANC-1, middle; AsPC1, right) (FIG. 10B top). Representative micrographs of filipin-labelled cholesterol. PDAC (MIAPaCa2, top; PANC-1, middle; AsPC1, bottom) cells were seeded for 24 hours and treated with 10 μM haloperidol (H) or pimozide (P) or DMSO for 18 hours (FIG. 10B bottom). Red-fluorescence represents propidium iodide (PI)-stained nuclei and blue-fluorescence represents filipin-stained cholesterol. mRNA levels of genes relative to R-actin shown on the y-axis involved in cholesterol biosynthesis (from left to right: SREBP1, SREBP2, INSIG1, HMGCR, LDLR) measured by qRT-PCR 18 hours post-treatment with DMSO (C), haloperidol (H) or pimozide (P) in three PDAC cell lines (MIAPaCa2, top; PANC-1, middle; AsPC1, bottom) (FIG. 10C).
The induction effect of pimozide or haloperidol on labeled 2-DG uptake in cancer cells were determined from measurement of the fluorescence intensity of cell lysates. […]

[9] = system: MIAPaCa-2, PANC-1 and AsPC-1 cells; experiment: Free cholesterol measurement (Filipin staining) in PDAC cell lines; assay type: cell-based, human; details: 10 μM, 18 hours; vs DMSO
Description: as §1
Cancer cells were seeded for 24 hours and treated with pimozide, haloperidol or DMSO for 18 hours. The cells were fixed with paraformaldehyde, stained with Filipin™ and propidium iodide (PI), and photographed. Filipin™ is a fluorescent polyene antibiotic that binds to free cholesterol. […]

[10] = system: SREBP1, SREBP2, INSIG1, HMGCR, LDLR mRNA; experiment: qRT-PCR of cholesterol biosynthesis genes in PDAC cell lines; assay type: cell-based, human; details: qRT-PCR 18 hours post-treatment; relative to actin
Description: as §1
For mice xenograft tissue samples and cultured cells, the miRNeasy kit (Qiagen, Valencia, Calif.) was used to extract total RNA. […] Quantification values were calculated according to a standard curve method created from a dilution series. […]

[11] = system: PANC-1, MIAPaCa-2 and AsPC-1 cell lines; experiment: PDAC cell line growth curves under combination therapy; assay type: cell-based, human; details: over time
Description: FIGS. 11A and 11B show PDAC cell line growth curves following combination therapy with DRD2 antagonists, 2-deoxy-D-glucose, and atorvastatin. Percentage cell growth shown on the y-axis following treatment with control (blue line), pimozide (Pim, gray line), atorvastatin and 2-deoxy-D-glucose (ATR+2-DG, red line) and combination of Pim and ATR+2-DG (green line) over time in PANC-1 (top), MIAPaCa-2 (middle) and AsPC-1 (bottom) cell lines (FIG. 11A). Haloperidol (Hal, gray line) is used as the DRD2 antagonist for use alone or in combination with ATR+2-DG as described in A (FIG. 11B). Dosage are indicated for each cell line.
PDAC cell proliferation was measured during pharmacological inhibition of DRD2 alone and in combination with blockade of glycolysis and cholesterol synthesis. To suppress glycolysis, 2-DG, a glucose analog which is a competitor inhibitor of glucose metabolism, was used. To inhibit cholesterol synthesis, atorvastatin (ATR), a competitive inhibitor of 3-hydroxy-3-methylglutaryl-coenzyme A (HMG-CoA) reductase in the cholesterol biosynthesis pathway was used.

OC1(c2ccc(Cl)cc2)CCN(Cc2c[nH]c3ccccc23)CC1 [L-741,626]
cell viability of pancreatic cancer cell lines [1]: Specific toxicity effect; also recorded: dose dependent toxicity effect
tumor cell migration (wound gap closure) [2]: tumor cell migration was affected
tumor cell migration (wound gap closure) ([2]; listed as L741): dose dependent inhibitory effect
viability of KPC mouse pancreatic cancer cell lines [3]: sensitive; also recorded: Dose-dependent effects

NCCc1ccc(O)c(O)c1 [dopamine]
cancer cell viability [4]: decreased significantly

Nc1ccn([C@@H]2O[C@H](CO)[C@@H](O)C2(F)F)c(=O)n1 [gemcitabine, 4-amino-1-[(2R,4R,5R)-3,3-difluoro-4-hydroxy-5-(hydroxymethyl)oxolan-2-yl]pyrimidin-2-one]
tumor volume [5]: reduced tumor weight and volume
tumor weight [5]: reduced tumor weight
1-year survival rate [6]: 21%
median overall survival (OS) [6]: 6 months

O=C(CCCN1CCC(O)(c2ccc(Cl)cc2)CC1)c1ccc(F)cc1 [haloperidol]
metastatic dissemination [7]: reduces tumor volume, metastasis
tumor volume ([7]; haloperidol 10 mg/kg intraperitoneally for 12 days): reduces tumor volume
viability of KPC mouse pancreatic cancer cell lines [3]: sensitive; also recorded: Dose-dependent effects
glucose uptake (intracellular labelled 2-deoxy-D-glucose) [8]: elevated uptake of glucose; also recorded: enhanced glucose and cholesterol uptake
abundance of free cholesterol (Filipin staining) [9]: increased the abundance of free cholesterol; also recorded: enhanced glucose and cholesterol uptake
expression of genes involved in lipogenesis / cholesterol biosynthesis [10]: inducing expression of genes involved in lipogenesis
cell growth [11]: reduced cell growth
